From PubChem BioAssay (NCI)
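Cells were grown in 96-well plates and exposed to each compound for 48 hours at five concentrations; endpoints were interpolated linearly between bracketing concentrations, or set to the highest concentration if not reached. GI50 = concentration required for 50% inhibition of growth. TGI denotes the concentration required for complete inhibition of growth.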

What was measured:
Assay in all cases: inhibition of tumour cell growth, NCI panel, 48 h
[1] = system: MDA-MB-435
[2] = system: CCRF-CEM leukemia
[3] = system: COLO 205 colon
[4] = system: UACC-257 melanoma
[5] = system: SF-268 CNS
[6] = system: T-47D breast
[7] = system: HS 578T breast
[8] = system: MCF7 breast
[9] = system: A549 NSCLC
[10] = system: MOLT-4 leukemia
[11] = system: SK-MEL-28 melanoma
[12] = system: MDA-MB-231 breast
[13] = system: SF-539 CNS
[14] = system: ACHN renal
[15] = system: IGROV1 ovarian
[16] = system: HT29 colon
[17] = system: SNB-75 CNS
[18] = system: NCI/ADR-RES ovarian
[19] = system: PC-3 prostate
[20] = system: 786-0 renal
[21] = system: OVCAR-8 ovarian
[22] = system: K-562 leukemia
[23] = system: KM12 colon
[24] = system: HL-60(TB) leukemia
[25] = system: OVCAR-5 ovarian
[26] = system: HCT-15 colon
[27] = system: SNB-19 CNS
[28] = system: TK-10 renal
[29] = system: SK-MEL-5 melanoma
[30] = system: SK-MEL-2 melanoma
[31] = system: CAKI-1 renal
[32] = system: HCC-2998 colon
[33] = system: UACC-62 melanoma
[34] = system: SR leukemia
[35] = system: UO-31 renal
[36] = system: EKVX NSCLC
[37] = system: NCI-H460 lung
[38] = system: NCI-H226 lung
[39] = system: HCT-116 colon
[40] = system: DU-145 prostate
[41] = system: M14 melanoma
[42] = system: SN12C renal
[43] = system: OVCAR-4 ovarian
[44] = system: RXF 393 renal
[45] = system: SK-OV-3 ovarian
[46] = system: HOP-62 NSCLC
[47] = system: RPMI-8226 leukemia
[48] = system: SW-620 colon
[49] = system: SF-295 CNS
[50] = system: U251 CNS
[51] = system: NCI-H522 lung
[52] = system: LOX IMVI melanoma
[53] = system: NCI-H23 lung
[54] = system: HOP-92 NSCLC
[55] = system: A498 renal
[56] = system: OVCAR-3 ovarian
[57] = system: BT-549 breast
[58] = system: MALME-3M melanoma

What does the source list for `O=C(CP(=O)(c1ccccc1)c1ccccc1)c1cccc(C(=O)CP(=O)(c2ccccc2)c2ccccc2)c1`?
TGI [1]: > 100 µM; TGI [2]: > 100 µM; TGI [3]: > 100 µM; TGI [4]: > 100 µM; TGI [5]: > 100 µM; TGI [6]: > 100 µM; TGI [7]: 57.9 µM; TGI [8]: > 100 µM; TGI [9]: > 100 µM; TGI [10]: > 100000 nM; TGI [11]: > 100 µM; TGI [12]: > 100 µM; TGI [13]: > 100 µM; TGI [14]: > 100000 nM; TGI [15]: > 100 µM; TGI [16]: > 100 µM; TGI [17]: 37.6 µM; TGI [18]: > 100 µM; TGI [19]: > 100 µM; TGI [20]: > 100 µM; TGI [21]: > 100000 nM; TGI [22]: > 100 µM; TGI [23]: > 100 µM; TGI [24]: > 100 µM; TGI [25]: > 100 µM; TGI [26]: > 100 µM; TGI [27]: > 100 µM; TGI [28]: > 100 µM; TGI [29]: > 100 µM; TGI [30]: > 100 µM; TGI [31]: > 100000 nM; TGI [32]: > 100 µM; TGI [33]: > 100000 nM; TGI [34]: > 100 µM; TGI [35]: > 100 µM; TGI [36]: > 100 µM; TGI [37]: > 100 µM; TGI [38]: > 100000 nM; TGI [39]: > 100 µM; TGI [40]: > 100 µM; TGI [41]: > 100 µM; TGI [42]: > 100 µM; TGI [43]: > 100 µM; TGI [44]: 52.7 µM; TGI [45]: 56.1 µM; TGI [46]: > 100 µM; TGI [47]: > 100 µM; TGI [48]: > 100 µM; TGI [49]: 30 µM

For `CN(C)CCCn1c2c(c3ccccc3c1=O)C(=O)c1ccccc1-2`, which GI50 [1] is on record?
Its GI50 is 2820 nM.

What about the TGI [1] of the same molecule?
Its TGI is 12 µM.

And the GI50 [2]?
Its GI50 is 1440 nM.

What about the TGI [2] of the same molecule?
Its TGI is 28.9 µM.

And the GI50 [3]?
The GI50 was 7.52 µM.

And the TGI [3]?
Its TGI is 24.8 µM.

And the GI50 [5]?
Its GI50 is 2710 nM.

What about the TGI [5] of the same molecule?
The TGI was 15.2 µM.

And the GI50 [6]?
The GI50 was 3.01 µM.

And the TGI [6]?
Its TGI is 14.8 µM.

And the GI50 [7]?
Its GI50 is 8.06 µM.

What about the TGI [7] of the same molecule?
Its TGI is 38 µM.

And the GI50 [8]?
Its GI50 is 554 nM.

And the TGI [8]?
The TGI was 12.2 µM.

What about the GI50 [9] of the same molecule?
The GI50 was 650 nM.

What about the TGI [9] of the same molecule?
Its TGI is 3.14 µM.

What about the GI50 [10] of the same molecule?
The GI50 was 276 nM.

What about the TGI [10] of the same molecule?
Its TGI is 746 nM.

And the GI50 [11]?
Its GI50 is 3.97 µM.

And the TGI [11]?
The TGI was 18.3 µM.

What about the GI50 [12] of the same molecule?
Its GI50 is 1740 nM.

And the TGI [12]?
The TGI was 5.09 µM.

What about the GI50 [13] of the same molecule?
The GI50 was 1860 nM.

What about the TGI [13] of the same molecule?
The TGI was 9.14 µM.

And the GI50 [14]?
Its GI50 is 507 nM.

And the TGI [14]?
The TGI was 2150 nM.

What about the GI50 [15] of the same molecule?
The GI50 was 2290 nM.

And the TGI [15]?
The TGI was over 100 µM.

What about the GI50 [16] of the same molecule?
Its GI50 is 749 nM.

What about the TGI [16] of the same molecule?
Its TGI is 4.51 µM.

What about the GI50 [17] of the same molecule?
The GI50 was 14.2 µM.

What about the TGI [17] of the same molecule?
The TGI was 33.1 µM.

And the GI50 [18]?
The GI50 was 1850 nM.

What about the TGI [18] of the same molecule?
The TGI was 7.13 µM.

What about the GI50 [19] of the same molecule?
Its GI50 is 2270 nM.

And the TGI [19]?
Its TGI is 13.7 µM.

And the GI50 [50]?
The GI50 was 1470 nM.

And the TGI [50]?
Its TGI is 6.37 µM.

And the GI50 [51]?
Its GI50 is 3.62 µM.

What about the TGI [51] of the same molecule?
The TGI was over 100 µM.

What about the GI50 [52] of the same molecule?
Its GI50 is 937 nM.

What about the TGI [52] of the same molecule?
The TGI was 3.19 µM.

What about the GI50 [53] of the same molecule?
The GI50 was 1750 nM.

What about the TGI [53] of the same molecule?
The TGI was 8.39 µM.

And the GI50 [20]?
The GI50 was 2470 nM.

And the TGI [20]?
The TGI was 14.2 µM.

And the GI50 [21]?
The GI50 was 336 nM.

What about the TGI [21] of the same molecule?
The TGI was 1340 nM.

And the GI50 [22]?
The GI50 was 1900 nM.

What about the TGI [22] of the same molecule?
The TGI was 8.01 µM.

And the GI50 [23]?
The GI50 was 3.6 µM.

And the TGI [23]?
The TGI was 17.7 µM.

And the GI50 [24]?
Its GI50 is 1740 nM.

And the TGI [24]?
Its TGI is 3.85 µM.

And the GI50 [25]?
Its GI50 is 3.06 µM.

And the TGI [25]?
Its TGI is 14 µM.

And the GI50 [26]?
The GI50 was 1850 nM.

What about the TGI [26] of the same molecule?
Its TGI is 12 µM.

What about the GI50 [27] of the same molecule?
Its GI50 is 2200 nM.

What about the TGI [27] of the same molecule?
The TGI was 21.9 µM.

What about the GI50 [28] of the same molecule?
Its GI50 is 1670 nM.

And the TGI [28]?
The TGI was 11.3 µM.

What about the GI50 [54] of the same molecule?
The GI50 was 421 nM.

And the TGI [54]?
Its TGI is 5.59 µM.

And the GI50 [30]?
The GI50 was 13.1 µM.

What about the TGI [30] of the same molecule?
The TGI was over 100 µM.

What about the GI50 [31] of the same molecule?
The GI50 was 583 nM.

And the TGI [31]?
The TGI was 2440 nM.

What about the GI50 [33] of the same molecule?
Its GI50 is 516 nM.

What about the TGI [33] of the same molecule?
The TGI was 1960 nM.

What about the GI50 [55] of the same molecule?
The GI50 was 5.99 µM.

What about the TGI [55] of the same molecule?
The TGI was 22.1 µM.

What about the GI50 [56] of the same molecule?
Its GI50 is 1670 nM.

And the TGI [56]?
The TGI was 6.79 µM.

What about the GI50 [35] of the same molecule?
Its GI50 is 2500 nM.

And the TGI [35]?
Its TGI is 23.5 µM.

What about the GI50 [57] of the same molecule?
The GI50 was 5.53 µM.

And the TGI [57]?
Its TGI is 19.9 µM.

What about the GI50 [36] of the same molecule?
Its GI50 is 11.3 µM.

What about the TGI [36] of the same molecule?
The TGI was 36.8 µM.

What about the GI50 [37] of the same molecule?
Its GI50 is 520 nM.

What about the TGI [37] of the same molecule?
The TGI was 10.5 µM.

What about the GI50 [38] of the same molecule?
The GI50 was 1180 nM.

What about the TGI [38] of the same molecule?
Its TGI is 2740 nM.

And the GI50 [39]?
Its GI50 is 578 nM.

And the TGI [39]?
Its TGI is 4.34 µM.

And the GI50 [40]?
The GI50 was 1330 nM.

What about the TGI [40] of the same molecule?
Its TGI is 8.54 µM.

And the GI50 [41]?
The GI50 was 3.66 µM.

What about the TGI [41] of the same molecule?
The TGI was 17.1 µM.

And the GI50 [42]?
The GI50 was 907 nM.

And the TGI [42]?
The TGI was 3.07 µM.

What about the GI50 [43] of the same molecule?
Its GI50 is 3.15 µM.

What about the TGI [43] of the same molecule?
The TGI was 48.9 µM.

And the GI50 [58]?
The GI50 was 2310 nM.

What about the TGI [58] of the same molecule?
The TGI was 5.71 µM.

And the GI50 [44]?
Its GI50 is 5.38 µM.

And the TGI [44]?
The TGI was 49.3 µM.

What about the GI50 [45] of the same molecule?
The GI50 was 4.14 µM.

What about the TGI [45] of the same molecule?
Its TGI is 73.8 µM.

And the GI50 [46]?
Its GI50 is 1740 nM.

What about the TGI [46] of the same molecule?
Its TGI is 6.61 µM.

And the GI50 [47]?
The GI50 was 1400 nM.

And the TGI [47]?
The TGI was 5.79 µM.

And the GI50 [48]?
Its GI50 is 771 nM.

What about the TGI [48] of the same molecule?
The TGI was 10.8 µM.

And the GI50 [49]?
The GI50 was 1120 nM.

And the TGI [49]?
The TGI was 3.74 µM.
